Reference: a compilation of properties of binary mixtures (doi:10.1021/je00020a016)

Experiment: excess molar enthalpy (molar enthalpy of mixing); xn = mol fraction of the nth substance listed
Settings: 100 kPa

CC1COC(=O)O1 (stereo not drawn) + COC(=O)OC
Settings | excess molar enthalpy [kcal/mol]
298.15 K, x1 = 0.0474 | 0.0131
298.15 K, x1 = 0.0905 | 0.0203
298.15 K, x1 = 0.1106 | 0.0227
298.15 K, x1 = 0.1428 | 0.0253
298.15 K, x1 = 0.1993 | 0.0272
298.15 K, x1 = 0.2491 | 0.0272
298.15 K, x1 = 0.3989 | 0.0244
298.15 K, x1 = 0.4988 | 0.0217
298.15 K, x1 = 0.5989 | 0.0184
298.15 K, x1 = 0.6656 | 0.0158
298.15 K, x1 = 0.7491 | 0.0127
298.15 K, x1 = 0.7993 | 0.0103
298.15 K, x1 = 0.8566 | 0.00741
298.15 K, x1 = 0.8884 | 0.0055
298.15 K, x1 = 0.9228 | 0.00382
298.15 K, x1 = 0.9598 | 0.00191
313.15 K, x1 = 0.0658 | 0.0217
313.15 K, x1 = 0.1429 | 0.0284
313.15 K, x1 = 0.2001 | 0.0296
313.15 K, x1 = 0.2502 | 0.0294
313.15 K, x1 = 0.3335 | 0.0284
313.15 K, x1 = 0.4002 | 0.0268
313.15 K, x1 = 0.5002 | 0.0232
313.15 K, x1 = 0.6003 | 0.0191
313.15 K, x1 = 0.6669 | 0.0167
313.15 K, x1 = 0.7502 | 0.0129
313.15 K, x1 = 0.8001 | 0.0108
313.15 K, x1 = 0.8563 | 0.00813
313.15 K, x1 = 0.889 | 0.00598
313.15 K, x1 = 0.96 | 0.00215

CCOC(=O)OCC + COC(=O)OC
excess molar enthalpy [kcal/mol]
Settings | 298.15 K | 313.15 K
x2 = 0.0565 | 0.00765 | 0.00645
x2 = 0.107 | 0.0148 | –
x2 = 0.1522 | – | 0.0179
x2 = 0.1932 | – | 0.0213
x2 = 0.1934 | 0.0234 | –
x2 = 0.2643 | – | 0.0272
x2 = 0.3241 | 0.0349 | –
x2 = 0.4181 | – | 0.0368
x2 = 0.4892 | – | 0.0387
x2 = 0.5896 | – | 0.0387
x2 = 0.6831 | – | 0.0349
x2 = 0.6834 | 0.0373 | –
x2 = 0.7418 | – | 0.0315
x2 = 0.7421 | 0.0335 | –
x2 = 0.8117 | – | 0.0265
x2 = 0.8119 | 0.027 | –
x2 = 0.8518 | – | 0.021
x2 = 0.8962 | 0.017 | –
x2 = 0.8995 | – | 0.0158
x2 = 0.92 | – | 0.0124
x2 = 0.9201 | 0.0141 | –
x2 = 0.9453 | 0.00932 | –
x2 = 0.9718 | – | 0.00454
x2 = 0.9719 | 0.00478 | –

CCOC(=O)OCC + CC1COC(=O)O1
excess molar enthalpy [kcal/mol]
Settings | 298.15 K | 313.15 K
x2 = 0.0482 | – | 0.0351
x2 = 0.0668 | 0.033 | –
x2 = 0.0919 | – | 0.0559
x2 = 0.1066 | 0.0504 | –
x2 = 0.1518 | 0.0631 | –
x2 = 0.1528 | – | 0.0698
x2 = 0.1926 | 0.07 | –
x2 = 0.1933 | – | 0.0755
x2 = 0.2623 | 0.0784 | –
x2 = 0.2644 | – | 0.0846
x2 = 0.3231 | 0.0593 | –
x2 = 0.4172 | 0.0605 | –
x2 = 0.4183 | – | 0.0915
x2 = 0.4884 | 0.0822 | –
x2 = 0.4895 | – | 0.0894
x2 = 0.5888 | 0.0765 | –
x2 = 0.6824 | 0.066 | –
x2 = 0.742 | 0.0583 | 0.0607
x2 = 0.8118 | 0.0452 | –
x2 = 0.8519 | 0.0373 | 0.0387
x2 = 0.8962 | 0.0263 | 0.0284
x2 = 0.9452 | 0.0139 | 0.0151
x2 = 0.9718 | 0.00765 | 0.00789
